This is an account of results in patent US20130317027A1, “COMPOUNDS AND THERAPEUTIC USES THEREOF” (Myrexis, Inc, priority 2010, published 2013).

Data set [1] relates to HCT116 cells. Briefly: Synergy between Nampt inhibitor and chemotherapeutic compounds (MacSynergy II, CellTiter-Glo). The format is cell-based. Conditions: combined with a known Nampt inhibitor. (Cellular ATP, detected with luciferase, serves as a proxy for viable cell number.)
Experimental: Experiments were conducted in HCT116 cells. […] Prior to combinations of compounds, dose curves of cells treated with a single compound were generated to define relevant compound doses to use in the combination analysis. Typically, relevant doses were those found in the inflection portion of a sigmoidal dose-response curve. Utilizing these optimized conditions, cells were dosed with Nampt inhibitor plus the test compound at a variety of concentrations of each, and viability was assessed using CellTiter-Glo. Data was processed using the MacSynergy™ II algorithm, which subtracted from actual data a prediction of compound additivity.
Another data set deals with T1, Human NAMPT (Homo sapiens, UniProt P43490).
T1 construct: 6xHis (N); made in house; host or cells: E. coli BL21-AI
T1 sequence (P43490 whole entry): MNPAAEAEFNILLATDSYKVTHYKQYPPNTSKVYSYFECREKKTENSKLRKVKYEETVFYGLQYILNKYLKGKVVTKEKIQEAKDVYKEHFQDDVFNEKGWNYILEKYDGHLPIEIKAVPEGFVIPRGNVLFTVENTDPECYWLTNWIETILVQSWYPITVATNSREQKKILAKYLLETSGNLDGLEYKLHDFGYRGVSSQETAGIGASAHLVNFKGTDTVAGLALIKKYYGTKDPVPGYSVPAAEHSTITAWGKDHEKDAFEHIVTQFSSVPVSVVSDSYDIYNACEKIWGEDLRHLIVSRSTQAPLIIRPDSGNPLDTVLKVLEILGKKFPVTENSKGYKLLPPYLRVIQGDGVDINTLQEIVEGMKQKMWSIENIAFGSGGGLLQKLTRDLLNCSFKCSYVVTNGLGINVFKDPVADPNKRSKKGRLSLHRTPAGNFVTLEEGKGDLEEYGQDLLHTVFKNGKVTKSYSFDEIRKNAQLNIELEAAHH
Briefly: Nampt Activity Assay (coupled enzyme, resazurin/diaphorase fluorometric detection of NADH). Conditions: read-out: vitro IC50 (Nampt activity assay). Type of data set: biochemical. The source says: 5-phosphoribosyl-1-pyrophosphate (PRPP), ATP, NaM, NaMN, Triton X-100, UDP-glucose and diaphorase were purchased from Sigma-Aldrich, St. Louis, Mo. Human NAMPT, NMN adenylyltransferase (NMNAT1) and UDP-glucose dehydrogenase (UGDH) encoding DNAs were each inserted into a house-modified E. Coli expression vector such that the expressed proteins carried an N-terminal 6×His tag. The His-tagged proteins were expressed in the BL21-AI E. Coli expression strain (Invitrogen Corporation, Carlsbad, Calif.) following induction by 0.2% L-arabinose and 0.5 mM IPTG at 30° C. Proteins were purified on Ni-NTA resin (Qiagen, Germantown, Md.).
The assay for Nampt catalytic activity was constructed based on a previously published coupled enzyme fluorometric technique, which employs NADH as ultimate analyte (Revollo, J. R. et al. Biol. Chem. 279, 50754-50763 (2004)). A substantial improvement in assay sensitivity was achieved by switching from direct detection to a resazurin/diaphorase-based fluorometric detection system for NADH (Guilbault, G. G., and Kramer, D. N. Anal. Chem. 37, 1219-1221 (1965)). The standard inhibition analyses were performed in a real-time mode in 96-well microtiter plates using 50 mM Tris-HCl, pH 7.5, 1% DMSO (v/v), 0.01% Triton X-100 (v/v), 10 mM MgCl2, 2 mM ATP, […], […], […], as well as the following detection reagents: 5 nM Nmnat, 200 nM Ugdh, 200 µM UDP-glucose, 0.02 U/mL diaphorase and […]. Incubation of samples at room temperature for up to 3 hours was followed by quantification of fluorescence intensities at excitation and emission wavelengths of 510 nm and 590 nm, respectively, using Gemini XS plate reader (Molecular Devices, Sunnyvale, Calif.). The counter-assay intended to disqualify false positives, such as inhibitors of detection enzymes or fluorescence quenchers, was carried out essentially as described above with an exception that 1 μM NaMN was substituted for Nampt.
(Resazurin is reduced to fluorescent resorufin, in cell work by metabolically active cells.)

Data set [2] can be described thus: Cytotoxicity Assay (CellTiter-Glo, 72 hour drug incubation). The conditions noted are these: human, HCT116 cells.
Experimental: (§1) HCT116 cells were seeded in 96 well plates (Greiner Bio-One, Monroe, N.C.) and allowed to settle overnight. Test compound dissolved in dimethyl sulfoxide (DMSO) was added and drug incubation proceeded for 72 hours. […] After 72 hour, 50 L of CellTiter-Glo Luminescent Cell Viability Assay reagent (Promega Corporation, Madison, Wis.) was added to cells in 200 L of cellular media. After a proscribed incubation period, luminescence was measured using a TopCount NXT plate reader (PerkinElmer, Waltham, Mass.).
In data set [3] the test system is HCT116 cells.
Experimental: as §1
The next data set relates to PARP in HCT116 cells. The data set is described as follows: PARP activation by 5-FU. The format is cell-based. An excerpt: Kim, M. Y. et al. Genes & Development 19:1951-67 (2005)). […] TS inactivation is know to cause an imbalance in nucleotide pools that subsequently promotes aberrant uracil incorporation into DNA (Berger S. H. et al. Biochemical Pharmacology 76:697-706 (2008)).

Data set [4] has as its system murine gastric and bladder tumors. Conditions: immune-competent mice; cited from earlier work.
For a further data set, the system named is PARP. Conditions: in vitro and in vivo models of cerebral ischemia; cited from earlier work.

pIC50: −log10 of the molar value.

Regarding `O=C(c1cc(Cc2n[nH]c(=O)c3ccccc23)ccc1F)N1CCN(C(=O)C2CC2)CC1` [olaparib], the “drug interaction (synergy, additivity, or antagonism) with Nampt inhibitor” value (shortened to “drug interaction … with Nampt inhibitor”) with HCT116 cells [1] is reported as “antagonism”.

Usually pIC50 stands for −log10 of the IC50, conventionally taken in molar units. One may read the IC50 as the point on the concentration scale where inhibition reaches its midpoint. Read a high IC50 as weaker potency. Regarding `O=C(NCc1cccnc1)Nc1ccc(C[S+]([O-])c2ccccc2-c2ccccc2)cc1` (centres unmarked) [Example 210, 1-{4-[(biphenyl-2-ylsulfinyl)methyl]phenyl}-3-(pyridin-3-ylmethyl)urea], the pIC50 at Human NAMPT was about 8.20. Further, the IC50 at 72 h in data set [2] was about 39 nM.

As to `O=C(NCc1cccnc1)Nc1ccc(NS(=O)(=O)c2cc(C(=O)NCC3CCCN3)c(Cl)cc2F)cc1` (centres unmarked) [Example 831, 2-Chloro-4-fluoro-5-[(4-{[(pyridin-3-ylmethyl)carbamoyl]amino}phenyl)sulfamoyl]-N-(pyrrolidin-2-ylmethyl)benzamide], the pIC50 on Human NAMPT was about 8.00.

Take `COc1cc(N/C(=N/C#N)NCc2ccc(NS(=O)(=O)c3ccccc3-c3ccccc3)cc2)ccn1` [Example 613, N-{4-[({(Z)-(Cyanoamino)[(2-methoxypyridin-4-yl)amino]methylidene}amino)methyl]phenyl} biphenyl-2-sulfonamide]: the negative logarithm of the IC50 (pIC50) on Human NAMPT is about 7.96. Moreover, the concentration for half-maximal inhibition (IC50) at 72 h in data set [2] was about 2600 nM.

For the compound `O=C(NCCCNS(=O)(=O)c1ccccc1-c1ccccc1)NCc1cccnc1` [Example 152, N-(3-{[(pyridin-3-ylmethyl)carbamoyl]amino}propyl)biphenyl-2-sulfonamide], on Human NAMPT, the pIC50 is about 8.70. In data set [2], this compound showed an IC50 at 72 h of about 55 nM.

Take “4-Fluoro-2-{2-[3- (morpholin-4- yl)azetidin-1- yl]pyridin-4-yl}- N-(4-{[(pyridin- 3-ylmethyl) carbamoyl] amino}phenyl) benzenesulfon- amide [Example 762]”: the pIC50 in the data set on HCT116 cells [3] was about 8.66.

As for `CN(C)CCOc1cccc(-c2ccccc2CCOc2ccc(NC(=O)NCc3cccnc3)cc2)c1` [Example 797, 1-[4-(2-{3′-[2-(Dimethylamino)ethoxy]biphenyl-2-yl}ethoxy)phenyl]-3-(pyridin-3-ylmethyl)urea], the pIC50 at Human NAMPT was about 8.00.

Take `O=C(NCc1cccnc1)Nc1ccc(COc2cc(C(F)(F)F)ccc2Cl)cc1` [Example 164, 1-(4-{[2-Chloro-5-(trifluoromethyl)phenoxy]methyl}phenyl)-3-(pyridin-3-ylmethyl)urea]: the pIC50 at Human NAMPT was about 8.74. The same compound registered a half-maximal inhibitory concentration (IC50) at 72 h in data set [2] of about 74 nM.

Take `N#C/N=C(/NCc1ccc(COc2ccccc2-c2ccccc2)cc1)Nc1ccncc1` [Example 605, 1-{4-[(Biphenyl-2-yloxy)methyl]benzyl}-2-cyano-3-pyridin-4-ylguanidine]: on Human NAMPT, the negative-log IC50 (pIC50) is about 8.62. Also, in data set [2], the IC50 at 72 h was about 1.1 nM.

On to `Oc1cccc(-c2nc(N3CCOCC3)c3oc4ncccc4c3n2)c1` [PI-103], for which, in the data set with HCT116 cells [1], the “drug interaction … with Nampt inhibitor” value is “synergized”.

As to `C[C@H](Oc1ccccc1-c1ccccc1)c1nc(CNC(=O)NCc2cccnc2)cs1` [Example 363, 1-({2-[(1S)-1-(Biphenyl-2-yloxy)ethyl]-1,3-thiazol-4-yl}methyl)-3-(pyridin-3-ylmethyl)urea], the negative-log IC50 (pIC50) on Human NAMPT was about 8.47. Also, the IC50 at 72 h in data set [2] was about 290 nM.

Take `N#C/N=C(\NCCOc1ccccc1-c1ccccc1)Nc1cccnc1` [Example 641, 1-[2-(Biphenyl-2-yloxy)ethyl]-2-cyano-3-pyridin-3-ylguanidine]: the pIC50 on Human NAMPT was about 5.89. In data set [2], this compound gave an IC50 at 72 h of about 3200 nM.

Take `O=c1[nH]cc(F)c(=O)[nH]1` [5-fluorouracil (5-FU), 5-fluorouracil]: in the data set on PARP in HCT116 cells, the PARP activation result was “PARP activator”.

Regarding `N#Cc1ccc(S(=O)(=O)Nc2ccc(NC(=O)NCc3cccnc3)cc2)c(Cl)c1` [Example 580, 2-Chloro-4-cyano-N-(4-{[(pyridin-3-ylmethyl)carbamoyl]amino}phenyl) benzenesulfonamide], the pIC50 on Human NAMPT is about 9.10. The IC50 at 72 h in data set [2] was about 100 nM.

Take `O=C(/C=C/c1cccnc1)NCCCCC1CCN(C(=O)c2ccccc2)CC1` [AP0866]: the “effect on tumor growth, co-administration with L-1MT” value in data set [4] was “additive inhibitory effect”.

For the compound `O=C(NCc1cccnc1)Nc1ccc(OCCc2ccc(F)cc2-c2ccnc(N3CCNCC3)c2)cc1` [Example 759, 1-[4-(2-{4-Fluoro-2-[2-(piperazin-1-yl)pyridin-4-yl]phenyl}ethoxy)phenyl]-3-(pyridin-3-ylmethyl)urea], the half-maximal inhibitory concentration (IC50) at 72 h in data set [2] is about 1.9 nM.

As for `COS(C)(=O)=O` [methyl methanesulfonate (MMS), methyl methanesulfonate], in the data set on HCT116 cells [1], the “drug interaction … with Nampt inhibitor” value was “synergy”.

Take `O=c1[nH]c(CCCN2CC=C(c3ccccc3)CC2)nc2cccc(Cl)c12` [FR247304]: in the data set on PARP, the neuronal damage result is given as “attenuate neuronal damage”.

Consider `Cc1nc2ccc(CN(C)c3ccc(C(=O)N[C@@H](CCC(=O)O)C(=O)O)s3)cc2c(=O)[nH]1` [raltitrexed], for which, in the data set with HCT116 cells [1], the “drug interaction … with Nampt inhibitor” value was “synergized”.

As to `N#C/N=C(/NCC(=O)NCCOc1ccccc1-c1ccccc1)Nc1ccncc1` [Example 634, (Z)-N-[2-(Biphenyl-2-yloxy)ethyl]-N~2~- [(cyanoamino)(pyridin-4-ylamino)methylidene] glycinamide], at Human NAMPT, the negative-log IC50 (pIC50) is about 6.28. This compound returned an IC50 at 72 h in data set [2] of about 5000 nM.
